Experimental data reported in paper PMC9851200, “Multiparameter phenotypic screening for endogenous TFEB and TFE3 translocation identifies novel chemical series modulating lysosome function” (Autophagy, 2022).
Like-named read-outs stand apart in the source and are kept apart here.

Experiments:
SH-SY5Y cells [1] = test: Nuclear count from microscopy images (cellular growth and toxicity); also: reference of the scale not given here
SH-SY5Y cells [2] = test: AK (adenylate kinase) release ToxiLight cytotoxicity assay; also: reference of the scale not given here
endogenous TFE3 = test: TFE3 nuclear translocation, immunocytochemistry high-content imaging; format: cell-based
SH-SY5Y cells [3] = test system: SH-SY5Y cells; also: reference of the scale not given here
endogenous TFEB = test: TFEB nuclear translocation, immunocytochemistry high-content imaging; format: cell-based
[4] = PKIS2 primary screening, DQ Red BSA intensity
[5] = PKIS2 primary screening, DQ Red BSA spot count

SMILES	Nuclear Count (SH-SY5Y cells [1]; PKIS2 primary screening)	AK (SH-SY5Y cells [2]; PKIS2 primary screening)	TFE3 % (endogenous TFE3; PKIS2 primary screening) [%]	DQ Intensity (SH-SY5Y cells [3]; [4])	DQ Spot (SH-SY5Y cells [3]; [5])	TFEB % (endogenous TFEB; PKIS2 primary screening) [%]	DQ Intensity (SH-SY5Y cells [3]; PKIS2 primary screening)	DQ Spot (SH-SY5Y cells [3]; PKIS2 primary screening)	Nuclear Count (SH-SY5Y cells [1]; PKIS2 primary screen)	AK (SH-SY5Y cells [2]; PKIS2 primary screen)	TFE3 % (endogenous TFE3; PKIS2 primary screen) [%]	DQ Intensity (SH-SY5Y cells [3]; PKIS2 primary screen, DQ Red BSA intensity)	DQ Spot (SH-SY5Y cells [3]; PKIS2 primary screen, DQ Red BSA spot count)	TFEB % (endogenous TFEB; PKIS2 primary screen) [%]
O=C(NCCCN1CCOCC1)c1cccc(Nc2nccc(Nc3ccc(Oc4ccccc4)cc3)n2)c1 [GW663929]	103.04	108.46	16.30	88.80	80.91	4.62								
COC(=O)Nc1nc2ccc(Oc3ccc(CC(=O)Nc4cc(C(F)(F)F)ccc4F)cc3)cc2[nH]1 [GW680903]	109.57	72.57	12.77	59.92	85.78	2.10								
COC(=O)Nc1nc2ccc(Oc3ccc(NC(=O)Nc4cc(C(F)(F)F)ccc4F)cn3)cc2[nH]1 [GW681170]	116.32	96.18	18.59	102.17	112.93	3.10								
Cc1n[nH]c2cc(Nc3ccnc(Nc4cccc(CN5CCOCC5)c4)n3)ccc12 [GW682569]	85.02	83.50	9.15	93.91	112.57	6.60								
O=C(Nc1ccc(Oc2ccc3nc(NC(=O)c4ccco4)[nH]c3c2)cc1)Nc1cc(C(F)(F)F)ccc1F [GW683134]	71.64	83.90	30.65	82.17	71.77	14.35								
COC(=O)Nc1nc2ccc(Oc3ccc(NC(=O)Nc4cc(C(F)(F)F)ccc4F)cc3)cc2n1C [GW692089]	60.83	128.42	18.60	156.96	122.99	7.12								
COC(=O)Nc1nc2ccc(Oc3ccc(NC(=O)Nc4cc(C(F)(F)F)ccc4Cl)cc3)cc2[nH]1 [GW697465]	70.87	89.89	30.84	71.39	100.12	5.88								
COC(=O)Nc1nc2ccc(Oc3ccc(NC(=O)Nc4cccc(SC)c4)cc3)cc2[nH]1 [GW697999]	71.32	75.30	19.88	145.78	122.82	5.11								
COC(=O)Nc1nc2ccc(Oc3ccc(NC(=O)Nc4cc(F)ccc4F)cc3)cc2[nH]1 [GW701424]	68.78	149.19	22.54	130.75	124.31	4.66								
CN1CCN(CCNc2nc3ccc(Oc4ccc(NC(=O)Nc5cc(C(F)(F)F)ccc5F)cc4)cc3[nH]2)CC1 [GW768504]	72.38	155.92	12.94	103.13	113.95	4.72								
COc1ccc(C)c(Nc2ccnc(Nc3ccc(-c4cnc[nH]4)cc3)n2)c1 [GW784041]	105.20	81.91	11.03	109.83	101.33	16.17								
Cc1c2ccc(N(C)c3ccnc(Nc4cccc(S(N)(=O)=O)c4)n3)cc2nn1Cc1ccccc1 [GW787226]	121.46	80.53	15.06	91.24	90.69	8.93								
CN(c1ccc(NC(=O)Nc2cc(C(F)(F)F)ccc2F)cc1)c1ccnc(Nc2ccc(S(N)(=O)=O)cc2)n1 [GW809893]	46.13	111.00	18.55	76.59	83.26	22.40								
CN(c1ccc2c(c1)nc(NCc1ccccc1)n2C)c1ccnc(Nc2ccc(CS(C)(=O)=O)cc2)n1 [GW811603]	118.98	192.03	9.93	108.65	109.65	7.98								
CN(c1ccc2c(c1)nc(NCc1ccc(F)cc1)n2C)c1ccnc(Nc2ccc(CS(C)(=O)=O)cc2)n1 [GW813244]	104.49	87.46	13.77	93.66	106.18	4.30								
CN1CCN(Cc2ccc(NC(=O)Nc3ccc(N(C)c4ccnc(Nc5ccc(CS(C)(=O)=O)cc5)n4)cc3)cc2)CC1 [GW827654]	120.62	74.74	10.58	92.35	93.05	6.08								
CN(c1ccc(NC(=O)Nc2cccc(Cl)c2)cc1)c1ccnc(N)n1 [GW830707]	115.77	94.92	9.81	86.00	87.81	11.00								

SMILES	Nuclear Count (SH-SY5Y cells [1]; PKIS2 primary screening)	AK (SH-SY5Y cells [2]; PKIS2 primary screening)	TFE3 % (endogenous TFE3; PKIS2 primary screening) [%]	DQ Intensity (SH-SY5Y cells [3]; [4])	DQ Spot (SH-SY5Y cells [3]; [5])	TFEB % (endogenous TFEB; PKIS2 primary screening) [%]	DQ Intensity (SH-SY5Y cells [3]; PKIS2 primary screening)	DQ Spot (SH-SY5Y cells [3]; PKIS2 primary screening)	Nuclear Count (SH-SY5Y cells [1]; PKIS2 primary screen)	AK (SH-SY5Y cells [2]; PKIS2 primary screen)	TFE3 % (endogenous TFE3; PKIS2 primary screen) [%]	DQ Intensity (SH-SY5Y cells [3]; PKIS2 primary screen, DQ Red BSA intensity)	DQ Spot (SH-SY5Y cells [3]; PKIS2 primary screen, DQ Red BSA spot count)	TFEB % (endogenous TFEB; PKIS2 primary screen) [%]
CN(c1ccc(NC(=O)N2CCN(CCCN3CCOCC3)CC2)cc1)c1ccnc(Nc2ccc(CS(C)(=O)=O)cc2)n1 [GW830899]	123.35	75.66	11.27	91.97	98.21	7.11								
O=C(Nc1n[nH]c2cc(-c3ccccc3F)ccc12)C1CC1 [SB-733371]	133.33	88.17	7.51	129.64	114.49	4.96								
O=C(Nc1n[nH]c2cc(-c3cccc(F)c3F)ccc12)C1CC1 [SB-733894]	112.33	80.72	15.11	66.38	85.29	5.04								
O=C(Nc1n[nH]c2cc(-c3ccco3)ccc12)C1CC1 [SB-737447]	114.46	119.40	9.47	79.02	97.06	10.40								
O=C(Nc1n[nH]c2nc(-c3ccco3)c(Br)cc12)c1ccc(CN2CCCC2)cc1 [SB-742352]	100.71	95.96	19.33	92.66	91.08	7.90								
Cl.NS(=O)(=O)c1cccc(Nc2cc(-c3ccc(F)cc3)n[nH]2)c1 [UNC10112764A]	80.49	125.30	14.81	118.54	103.52	1.30								
CCn1c(-c2nonc2N)nc2ccccc21 [UNC10112830A]	114.37	85.29	10.17			9.19	143.39	111.62						
Cc1ccc(NC(=O)c2ccc(Cl)cc2)cc1-c1ccc(C(=O)Nc2ccncc2)cc1 [UNC10224985A]	119.79	72.98	13.44			7.14	77.83	81.57						
O=C(NCC1CC1)c1ccc(-c2cc(C(=O)NC3CC3)ccc2F)cc1 [UNC10224986A]	97.72	72.27	10.56			5.16	92.71	109.74						
COc1cccc(CC(=O)N2CCc3cc(-c4cn(C)c5ncnc(N)c45)ccc32)c1 [UNC10224987A]	115.64	97.56	10.50			11.97	104.40	98.28						
NS(=O)(=O)CCc1cccc(Nc2nccc(-c3c(-c4cccc(NC(=O)c5c(F)cccc5F)c4)nn4ccccc34)n2)c1 [UNC10224988A]	124.64	106.43	7.44			3.80	109.41	101.39						
Cl.O=S(=O)(c1cccc(F)c1)c1ccc(Nc2ncnc3cc(Br)sc23)cc1Cl [UNC10224990A]	81.79	136.08	13.25	81.12	105.16	10.77								
CC(C)c1nc(-c2cccc(NS(=O)(=O)c3c(F)cccc3F)c2F)c(-c2ccnc(Nc3ccc(N4CCOCC4)nc3)n2)s1 [UNC10224991A]	54.49	96.03	13.92			5.34	137.04	135.69						
Cc1ccc(NC(=O)Nc2ccccc2)cc1-c1ccc(C(=O)Nc2ccncc2)cc1 [UNC10224992A]	89.66	119.72	19.70			8.91	74.41	94.75						
Nc1ncnc2occ(-c3ccc4c(c3)CCN4C(=O)Cc3cc(F)ccc3F)c12 [UNC10225000A]	124.09	111.48	4.51	134.29	108.59	2.84								
Cc1c(Cn2c(C)nn3c(=O)cc(N4CCOC(C)C4)nc23)cccc1C(F)(F)F (stereo not drawn) [UNC10225005A]									125.80	90.28	10.85	85.13	83.90	4.71
Cc1ccc(NC(=O)c2ccnc(N3CCN(C)CC3)c2)cc1-c1ccc(C(=O)NCC2CC2)cc1 [UNC10225009A]	101.80	154.31	12.99			4.01	132.78	99.28						
